Laboratory results taken from ChEMBL document CHEMBL1201862, “PubChem BioAssay data set” (2004).
The source made the active and inactive calls.

Experiments:
Cytochrome P450 3A4 = Cytochrome P450 3A4 (Homo sapiens, UniProt P08684);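 note: CYP3A4 tested as one member of a cytochrome P450 panel screen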
Cytochrome P450 1A2 = target: T1, Cytochrome P450 1A2 (Homo sapiens, UniProt P05177);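 note: PubChem cytochrome P450 panel assay, CYP1A2 panel member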
T1 sequence (P05177 whole entry): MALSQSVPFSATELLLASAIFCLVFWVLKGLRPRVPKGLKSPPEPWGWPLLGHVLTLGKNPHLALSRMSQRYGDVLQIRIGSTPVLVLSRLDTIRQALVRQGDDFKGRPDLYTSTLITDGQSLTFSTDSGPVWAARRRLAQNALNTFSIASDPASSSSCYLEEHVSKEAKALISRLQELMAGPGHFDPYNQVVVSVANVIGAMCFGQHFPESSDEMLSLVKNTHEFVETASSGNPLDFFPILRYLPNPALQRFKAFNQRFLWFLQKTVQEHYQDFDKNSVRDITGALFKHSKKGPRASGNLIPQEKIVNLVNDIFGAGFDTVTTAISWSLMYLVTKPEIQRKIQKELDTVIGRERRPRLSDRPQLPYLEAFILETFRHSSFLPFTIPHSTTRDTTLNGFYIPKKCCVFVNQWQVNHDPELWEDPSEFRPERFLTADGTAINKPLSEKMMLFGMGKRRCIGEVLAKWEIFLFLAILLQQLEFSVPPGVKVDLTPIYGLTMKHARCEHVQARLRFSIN

Cytochrome P450 2C9 = Cytochrome P450 2C9 (Homo sapiens, UniProt P11712)
Sequence of Cytochrome P450 2C9 (P11712 whole entry): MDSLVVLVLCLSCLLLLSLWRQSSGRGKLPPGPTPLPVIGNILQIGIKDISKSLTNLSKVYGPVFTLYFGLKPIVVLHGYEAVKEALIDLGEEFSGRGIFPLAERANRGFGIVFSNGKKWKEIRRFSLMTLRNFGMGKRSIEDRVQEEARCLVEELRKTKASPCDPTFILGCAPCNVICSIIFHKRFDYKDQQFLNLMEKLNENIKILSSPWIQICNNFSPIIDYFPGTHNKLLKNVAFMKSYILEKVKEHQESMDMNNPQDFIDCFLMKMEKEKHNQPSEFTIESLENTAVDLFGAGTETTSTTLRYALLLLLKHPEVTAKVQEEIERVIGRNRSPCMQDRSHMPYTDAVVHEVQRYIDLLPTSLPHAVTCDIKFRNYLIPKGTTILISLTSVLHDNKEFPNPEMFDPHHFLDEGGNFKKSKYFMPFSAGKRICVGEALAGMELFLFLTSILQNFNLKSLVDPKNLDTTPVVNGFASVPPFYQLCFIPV

[1] = target: T2, Heat shock factor protein 1 (Mus musculus, UniProt P38532); experiment: inhibition of MG132-induced HSE-luciferase signal, confirmation, cell-based, NIH3T3, luminescence, dose retest (AID 2382); format: functional;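 note: NIH3T3 fibroblasts with HSF1-driven luciferase reporter stressed by proteasome inhibitor MG132; luminescence from HSF1-driven luciferase expression after 8 hours of MG132 stress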
T2 sequence (P38532 whole entry): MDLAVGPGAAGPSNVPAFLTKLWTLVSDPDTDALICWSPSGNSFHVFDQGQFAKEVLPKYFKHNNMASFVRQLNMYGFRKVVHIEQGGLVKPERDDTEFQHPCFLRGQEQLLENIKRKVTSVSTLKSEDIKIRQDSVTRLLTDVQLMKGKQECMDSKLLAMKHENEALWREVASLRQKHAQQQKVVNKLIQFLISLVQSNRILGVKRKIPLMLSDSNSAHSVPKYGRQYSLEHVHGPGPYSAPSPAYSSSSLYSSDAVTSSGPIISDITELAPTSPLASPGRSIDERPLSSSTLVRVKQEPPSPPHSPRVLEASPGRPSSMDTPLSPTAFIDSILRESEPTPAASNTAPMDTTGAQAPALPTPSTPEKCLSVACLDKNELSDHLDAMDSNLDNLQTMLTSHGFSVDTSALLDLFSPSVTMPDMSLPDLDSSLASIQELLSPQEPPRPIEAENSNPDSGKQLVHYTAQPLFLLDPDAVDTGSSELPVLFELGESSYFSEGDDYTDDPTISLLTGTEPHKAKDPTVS

[2] = Luminescence Cell-Based Dose Retest to Confirm Inhibitors of Cancer Stem Cells. [Related pubchem assays (depositor defined):AID2717, AID2721]; format: functional; settings: Homo sapiens
Cytochrome P450 2D6 = Cytochrome P450 2D6 (Homo sapiens, UniProt P10635);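 note: CYP2D6 member of a cytochrome P450 panel assay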
Sequence of Cytochrome P450 2D6 (P10635 whole entry): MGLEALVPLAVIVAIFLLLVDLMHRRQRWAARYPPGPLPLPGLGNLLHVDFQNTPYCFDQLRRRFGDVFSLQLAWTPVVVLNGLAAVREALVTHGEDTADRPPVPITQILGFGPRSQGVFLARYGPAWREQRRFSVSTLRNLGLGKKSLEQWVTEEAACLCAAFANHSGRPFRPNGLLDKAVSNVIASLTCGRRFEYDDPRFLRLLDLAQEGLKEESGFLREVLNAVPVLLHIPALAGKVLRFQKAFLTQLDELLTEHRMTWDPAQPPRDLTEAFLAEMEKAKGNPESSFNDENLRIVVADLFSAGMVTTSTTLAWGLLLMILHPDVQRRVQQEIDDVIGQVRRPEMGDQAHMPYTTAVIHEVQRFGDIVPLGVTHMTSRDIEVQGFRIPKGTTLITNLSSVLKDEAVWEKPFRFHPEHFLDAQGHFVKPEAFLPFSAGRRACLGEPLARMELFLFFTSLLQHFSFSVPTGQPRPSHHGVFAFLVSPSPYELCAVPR

Cytochrome P450 2C19 = Cytochrome P450 2C19 (Homo sapiens, UniProt P33261); experiment: Cytochrome panel assay with activity outcomes. Panel member name: p450-cyp2c19 Compounds with AC50 equal or less than 10 uM are considered active; format: functional; settings: read-out: AC50
Sequence of Cytochrome P450 2C19 (P33261 whole entry): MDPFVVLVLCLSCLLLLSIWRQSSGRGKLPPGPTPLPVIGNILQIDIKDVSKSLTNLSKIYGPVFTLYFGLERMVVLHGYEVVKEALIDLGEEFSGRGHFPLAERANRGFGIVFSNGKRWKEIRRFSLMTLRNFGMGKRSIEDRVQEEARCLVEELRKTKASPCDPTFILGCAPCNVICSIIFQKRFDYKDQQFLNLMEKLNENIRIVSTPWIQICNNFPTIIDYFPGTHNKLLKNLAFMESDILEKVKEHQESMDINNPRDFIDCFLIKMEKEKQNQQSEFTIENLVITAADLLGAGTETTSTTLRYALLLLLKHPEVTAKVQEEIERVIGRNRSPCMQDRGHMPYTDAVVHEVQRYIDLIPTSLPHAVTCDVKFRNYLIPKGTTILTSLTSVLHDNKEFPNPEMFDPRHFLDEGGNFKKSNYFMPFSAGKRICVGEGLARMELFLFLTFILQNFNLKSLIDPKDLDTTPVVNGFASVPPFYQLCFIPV

[3] = system: Streptococcus sp. 'group A'; experiment: growth inhibition of control SK(-) GAS strain, dose response, counter-screen for streptokinase expression inhibitor project, luminescence, kanamycin, BacTiterGlo, confirmation (AID 1900); format: functional, organism-based
Streptokinase A = target: T3, Streptokinase A (Streptococcus pyogenes serotype M1, UniProt P10520); experiment: S. pyogenes streptokinase expression inhibitors, potency, dose response, plasminogen activation absorbance, OD405 (AID 1914); format: functional, Streptococcus pyogenes M1 GAS;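 note: secreted streptokinase activity via plasminogen activation per viability signal from cell pellet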
T3 sequence (P10520 whole entry): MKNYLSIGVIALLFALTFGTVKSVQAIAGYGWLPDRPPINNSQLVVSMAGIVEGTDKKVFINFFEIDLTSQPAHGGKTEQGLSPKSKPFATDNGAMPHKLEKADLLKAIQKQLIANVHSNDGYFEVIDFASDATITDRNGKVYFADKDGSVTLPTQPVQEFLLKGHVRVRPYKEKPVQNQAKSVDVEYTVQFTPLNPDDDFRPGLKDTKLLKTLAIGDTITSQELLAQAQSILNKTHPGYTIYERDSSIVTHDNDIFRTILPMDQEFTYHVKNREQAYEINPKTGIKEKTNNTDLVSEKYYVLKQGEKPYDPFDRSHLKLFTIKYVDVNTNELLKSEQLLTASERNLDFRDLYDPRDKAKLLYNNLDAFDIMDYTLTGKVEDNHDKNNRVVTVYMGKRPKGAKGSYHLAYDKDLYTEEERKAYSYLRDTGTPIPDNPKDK

Streptococcus = experiment: Group A Streptococcus viability loss, dose response, counter-screen for streptokinase expression inhibitor project, luminescence, BacTiterGlo (AID 1915); format: functional, organism-based;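 note: potency for reduction of bacterial viability or growth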

Sequence of Cytochrome P450 3A4 (P08684 whole entry): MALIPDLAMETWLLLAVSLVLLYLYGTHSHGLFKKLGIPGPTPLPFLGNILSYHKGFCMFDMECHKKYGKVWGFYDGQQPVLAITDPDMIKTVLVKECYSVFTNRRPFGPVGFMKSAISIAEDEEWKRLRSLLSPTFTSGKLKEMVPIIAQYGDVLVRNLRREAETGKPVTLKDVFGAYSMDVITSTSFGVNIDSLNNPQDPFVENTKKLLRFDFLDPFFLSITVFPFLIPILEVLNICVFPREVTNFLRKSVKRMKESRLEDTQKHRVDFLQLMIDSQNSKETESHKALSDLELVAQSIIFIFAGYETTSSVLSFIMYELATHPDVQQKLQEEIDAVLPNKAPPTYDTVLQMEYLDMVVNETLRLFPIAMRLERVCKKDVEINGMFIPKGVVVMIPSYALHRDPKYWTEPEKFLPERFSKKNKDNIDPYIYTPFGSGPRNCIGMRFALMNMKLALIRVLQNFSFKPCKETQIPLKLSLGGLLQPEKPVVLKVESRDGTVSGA

Cc1ccc(/N=C/c2cc(C)n(C3CCCC3)c2C)cc1
AC50 (Cytochrome P450 3A4): 20 µM (inconclusive)

Cl/C(=N\c1cccc2ccccc12)N(c1ccccc1)c1ccccc1
AC50 (Cytochrome P450 1A2): 1 µM (inconclusive) | AC50 (Cytochrome P450 3A4): 3.98 µM (inconclusive)

Cc1ccc(CCN2CC(C(=O)N3CCC4(CC3)OCCO4)CC2=O)cc1 (stereo unspecified)
AC50 (Cytochrome P450 3A4): 17.8 µM (inconclusive) | AC50 (Cytochrome P450 2C9): 12.6 µM (inconclusive)

CCCCOC(=O)CSCC(=O)Nc1cc(C)on1
EC50 [1]: > 195 µM (not active) | AC50 (Cytochrome P450 1A2): 25.1 µM (inconclusive) | AC50 (Cytochrome P450 2C9): 2.51 µM (inconclusive)

C[C@]1(C2CCCC2)Cc2cc(OCC(=O)O)c(Cl)c(Cl)c2C1=O
AC50 (Cytochrome P450 3A4): 12.6 µM (inconclusive) | AC50 (Cytochrome P450 2C9): 39.8 µM (inconclusive)

OCCCNc1nc(-c2ccccc2)c2cc(Br)ccc2n1
AC50 [2]: 24 µM (active)

Oc1c(C(O)(c2ccccc2)c2ccc3ccccc3c2O)ccc2ccccc12
AC50 (Cytochrome P450 2D6): 3.98 µM (inconclusive) | AC50 (Cytochrome P450 1A2): 1 µM (inconclusive)

COc1ccc(/C=N/NC(=O)CCc2ccccc2)cc1O
AC50 (Cytochrome P450 2C19): 15.8 µM (inconclusive) | AC50 (Cytochrome P450 3A4): 22.4 µM (inconclusive)

CC1(C)Cc2c(sc3c2C(=O)N(c2ccccc2)C2=NCCN23)CS1
AC50 (Cytochrome P450 1A2): 22.4 µM (inconclusive)

CCOc1ccc(-c2nnc3ccc(SCC(=O)NCc4ccco4)nn23)cc1
AC50 (Cytochrome P450 2C19): 1 µM (inconclusive) | AC50 (Cytochrome P450 1A2): 15.8 µM (inconclusive) | AC50 (Cytochrome P450 3A4): 7.94 µM (inconclusive)

CCC12C=CCN3CCC4(c5cc(Br)c(OC)cc5N(C)C4C(O)(C(=O)OC)C1OC(C)=O)C32 (stereo unspecified)
AC50 (Cytochrome P450 2C19): 11.2 µM (inconclusive) | AC50 (Cytochrome P450 3A4): 39.8 µM (inconclusive) | AC50 (Cytochrome P450 2C9): 22.4 µM (inconclusive)

CC1CCCC(NC(=O)C2CCN(S(=O)(=O)N3CCC4(CC3)OCCO4)CC2)C1C (stereo unspecified)
AC50 (Cytochrome P450 2C19): 6.31 µM (inconclusive) | AC50 (Cytochrome P450 3A4): 14.1 µM (inconclusive) | AC50 (Cytochrome P450 2C9): 39.8 µM (inconclusive)

COc1ccc(CNCC(O)(c2ccc(Cl)cc2)c2ccc(Cl)cc2)cc1
EC50 [3]: 3.01 µM (active) | EC50 (Streptokinase A): 19.7 µM (active) | EC50 (Streptococcus): 17.9 µM (active)

COC(=O)[C@@]1(Cc2ccccc2)[C@H]2c3cc(C(=O)N4CCCC4)n(Cc4c(CO)ncc(C)c4O)c3C[C@H]2CN1C(=O)c1ccccc1
AC50 (Cytochrome P450 1A2): 5.01 µM (inconclusive)

CCNc1ncc2nc(-c3ccc(Cl)cc3)c(=O)n(-c3ccccc3)c2n1
AC50 (Cytochrome P450 1A2): 1 µM (inconclusive)

COc1ccc(NC(=O)CSc2nncn2C)c([N+](=O)[O-])c1
AC50 (Cytochrome P450 3A4): 22.4 µM (inconclusive) | AC50 (Cytochrome P450 2C9): 14.1 µM (inconclusive)

O=C(c1ccc(CSc2ccccc2)cc1)N1CCN(c2ccccc2)CC1
AC50 [2]: 3.26 µM (active)

CN1CCN(c2ncc3nc(-c4cccs4)c(=O)n(C[C@H]4CCCO4)c3n2)CC1
AC50 (Cytochrome P450 3A4): 10 µM (inconclusive)

O=C(Nc1ccc(Cl)cc1C(=O)c1ccccc1)c1ccco1
AC50 (Cytochrome P450 3A4): 22.4 µM (inconclusive) | AC50 (Cytochrome P450 2C9): 3.98 µM (inconclusive)

COc1ccc(/C=C2\C(=O)c3ccccc3OC2c2ccccc2)cc1 (stereo unspecified)
AC50 [2]: 1.12 µM (active)

COc1cc(C(=O)NC(=S)Nc2ccc(Cc3ccncc3)cc2)cc(OC)c1OC
EC50 [3]: 2.84 µM (active) | EC50 (Streptokinase A): > 150 µM (not active) | EC50 (Streptococcus): 25 µM (active)

NC(=O)c1cc(C(=O)Cc2ccccc2)c[nH]1
EC50 [3]: 2.27 µM (active) | EC50 (Streptokinase A): 107 µM (active) | EC50 (Streptococcus): > 150 µM (not active)

COc1cccc(-c2sc3ccc(OC)cc3c2C#CC2(O)CCCCC2)c1
AC50 [2]: 3.74 µM (active)

CC(C)(C)c1cc(C(=O)Nc2ccc(F)cc2)n(Cc2ccc(F)cc2)n1
EC50 [3]: 7.02 µM (active) | EC50 (Streptokinase A): 2.85 µM (active) | EC50 (Streptococcus): 10.3 µM (active)

CCCCNC(=O)c1cn(CC(C)C)c(=O)c2c1c1ccccc1n2C
EC50 [3]: 15.5 µM (active) | EC50 (Streptokinase A): > 150 µM (not active) | EC50 (Streptococcus): > 150 µM (not active)

NNC(=O)c1nn(-c2ccc(Cl)cc2)ccc1=O
AC50 (Cytochrome P450 3A4): 25.1 µM (inconclusive)

COc1ccccc1N1CCN(C(=O)/C=C/c2c(Cl)nc3ccccn23)CC1
EC50 [3]: 1.25 µM (active) | EC50 (Streptokinase A): > 150 µM (not active) | EC50 (Streptococcus): 12.7 µM (active)

Cc1ccccc1NS(=O)(=O)c1ccc2ncc(C(=O)N(C)Cc3ccco3)c(O)c2c1
AC50 (Cytochrome P450 2D6): 17.8 µM (inconclusive) | AC50 (Cytochrome P450 3A4): 0.794 µM (inconclusive)

Cc1cccc(NC(=S)c2nc3ccccc3s2)c1
AC50 (Cytochrome P450 2D6): 35.5 µM (inconclusive) | AC50 (Cytochrome P450 3A4): 3.98 µM (inconclusive)

CN(C)c1cc2c(Nc3ccc4c(cnn4Cc4ccccc4)c3)ncnc2cn1 [GW282974X]
AC50 (Cytochrome P450 2C19): 25.1 µM (inconclusive) | AC50 (Cytochrome P450 2D6): 31.6 µM (inconclusive)

O=C1[C@H]2[C@H]3[C@H](O)[C@H](O)C/C(=N/OC[C@@H](O)COCc4ccco4)[C@H]3CC[C@@H]2C(=O)N1C1CCCCC1
AC50 (Cytochrome P450 3A4): 3.98 µM (inconclusive)

O=C1C2C(c3ccccc3)CC=CC2[C@H](c2ccc(C(F)(F)F)cc2)N1Cc1ccccc1 (stereo partly specified)
AC50 [2]: 5.21 µM (active)

CO/N=C/C(=C\Nc1ccccc1)c1ncc(C(F)(F)F)cc1Cl
AC50 (Cytochrome P450 3A4): 22.4 µM (inconclusive)

CC(=O)Nc1cccc(C(=O)OC(C(=O)c2ccc(C)c(C)c2)c2ccccc2)c1 (stereo unspecified)
AC50 (Cytochrome P450 2D6): 17.8 µM (inconclusive) | AC50 (Cytochrome P450 1A2): 22.4 µM (inconclusive)

O=C(Nc1ccc2c(c1)OCO2)c1cc(-c2cccc(O)c2)on1
AC50 [2]: 0.715 µM (active)

COc1ccc(-c2cc([C@H]3[C@@H]4C=CCC[C@@]4(C)C(=O)N3Cc3ccccc3)ccc2F)cc1OC
AC50 [2]: 3.92 µM (active)

O=C(O)[C@H]1CN(CCCP(=O)(O)O)CCN1
AC50 (Cytochrome P450 1A2): 39.8 µM (inconclusive)

COc1ccccc1-c1nccc(NCc2cnc(C)cn2)n1
AC50 (Cytochrome P450 3A4): 39.8 µM (inconclusive)

CC(=O)NCCNc1ncnc2ccc(-c3ccc(C(=O)N(C)C)cc3)cc12
AC50 (Cytochrome P450 1A2): 25.1 µM (inconclusive)

O=C(CSc1nnc(CNc2ccc(F)cc2)o1)N1c2ccccc2Sc2ccccc21
AC50 (Cytochrome P450 1A2): 10 µM (inconclusive)

Cn1c(OCc2ccc3c(c2)OCO3)nc2c1c(=O)n(Cc1ccc(Cl)c(Cl)c1)c(=O)n2C
AC50 (Cytochrome P450 1A2): 14.1 µM (inconclusive)

CC(C)(C)N(Cc1ccccc1)C(=O)c1cc2ccccc2o1
AC50 [2]: 0.407 µM (active)

CCCC(c1nnnn1CC1CCCO1)N1CCN(c2cc(Cl)ccc2C)CC1 (stereo unspecified)
AC50 [2]: 3.53 µM (active)

Oc1nc(Nc2cccc(Cl)c2)sc1/C=C1\C=Nc2ccccc21
AC50 [2]: 1.91 µM (active)

Cc1cc2nc(CSc3ccccc3)cc(O)n2n1
EC50 (Streptokinase A): > 150 µM (not active)

CCOC(=O)c1sc2c(c1C)c(=O)c(C(=O)OCC)cn2CC
AC50 (Cytochrome P450 1A2): 25.1 µM (inconclusive)

CCc1nc(N2CCN(Cc3ccc4c(c3)OCO4)CC2)c2oc3ccccc3c2n1
AC50 [2]: 2.71 µM (active)

COC(=O)c1ccc(CN(c2ccc(C(=O)O)c(O)c2)S(=O)(=O)c2ccc(Cl)c([N+](=O)[O-])c2)cc1
EC50 [3]: 1.48 µM (active) | EC50 (Streptococcus): 5.96 µM (active) | AC50 [2]: 4.38 µM (active)

CC(C)Sc1cc(N2CCOCC2)nc(-c2ccc(Cl)cc2)n1
AC50 (Cytochrome P450 2C19): 11.2 µM (inconclusive) | AC50 (Cytochrome P450 3A4): 17.8 µM (inconclusive) | AC50 (Cytochrome P450 2C9): 11.2 µM (inconclusive)

Cc1c(C(=O)Nc2nccs2)sc2nc(-c3cccs3)cc(C(F)(F)F)c12
AC50 (Cytochrome P450 2C19): 2.82 µM (inconclusive) | AC50 (Cytochrome P450 2D6): 3.98 µM (inconclusive)
